Data: PubChem BioAssay AID1963837 (Molecular Pharmacology Branch, DTP, NCI, 2024)

System: 843126-344-R-J1-PDC complex spheroid viability
Assay: Anticancer human tumor 843126-344-R-J1-PDC patient-derived melanoma cell line growth inhibition [POLQ]
Details: for IC50: curve of first compound; for viability, T/C: stronger effect = lower value
Procedure, shortened: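 PDC + HUVEC + MSC complex spheroids; POLQ inhibitors ± partner drugs; top conc. at/near clinical Cmax, else 10 microM (SN-38 1 microM), half-log dilutions; 37 degrees C, 5% CO2.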

[1] = second compound 0.0316 µM, first compound 0.0316 µM
[2] = second compound 0.0316 µM, first compound 0.1 µM
[3] = second compound 0.0316 µM, first compound 0.316 µM
[4] = second compound 0.0316 µM, first compound 1 µM
[5] = second compound 0.0316 µM, first compound 3.16 µM
[6] = second compound 0.0316 µM, first compound 10 µM
[7] = second compound 0.1 µM, first compound 0.0316 µM
[8] = second compound 0.1 µM, first compound 0.1 µM
[9] = second compound 0.1 µM, first compound 0.316 µM
[10] = second compound 0.1 µM, first compound 1 µM
[11] = second compound 0.1 µM, first compound 3.16 µM
[12] = second compound 0.1 µM, first compound 10 µM
[13] = second compound 0.316 µM, first compound 0.0316 µM
[14] = second compound 0.316 µM, first compound 0.1 µM
[15] = second compound 0.316 µM, first compound 0.316 µM
[16] = second compound 0.316 µM, first compound 1 µM
[17] = second compound 0.316 µM, first compound 3.16 µM
[18] = second compound 0.316 µM, first compound 10 µM
[19] = second compound 1 µM, first compound 0.0316 µM
[20] = second compound 1 µM, first compound 0.1 µM
[21] = second compound 1 µM, first compound 0.316 µM
[22] = second compound 1 µM, first compound 1 µM
[23] = second compound 1 µM, first compound 3.16 µM
[24] = second compound 1 µM, first compound 10 µM
[25] = second compound 3.16 µM, first compound 0.0316 µM
[26] = second compound 3.16 µM, first compound 0.1 µM
[27] = second compound 3.16 µM, first compound 0.316 µM
[28] = second compound 3.16 µM, first compound 1 µM
[29] = second compound 3.16 µM, first compound 3.16 µM
[30] = second compound 3.16 µM, first compound 10 µM
[31] = second compound 10 µM, first compound 0.0316 µM
[32] = second compound 10 µM, first compound 0.1 µM
[33] = second compound 10 µM, first compound 0.316 µM
[34] = second compound 10 µM, first compound 1 µM
[35] = second compound 10 µM, first compound 3.16 µM
[36] = second compound 10 µM, first compound 10 µM
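Wherever viability, T/C is given: spheroids exposed to drugs for seven days before readout.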

## CC1COCCN1c1cc(C2(S(C)(=N)=O)CC2)nc(-c2ccnc3[nH]ccc23)n1 (stereo not drawn) + Cc1cccc(N(C)C(=O)C2C(O)CCN2c2nc(C)cc(C(F)(F)F)c2C#N)c1
Second compound 0.0316 µM
  IC50: > 10 µM
Second compound 0.1 µM
  IC50: > 10 µM
Second compound 0.316 µM
  IC50: > 10 µM
Second compound 1 µM
  IC50: > 10 µM
Second compound 3.16 µM
  IC50: > 10 µM
Second compound 10 µM
  IC50: > 10 µM
[1]
  viability, T/C: 102%
[2]
  viability, T/C: 80.2%
[3]
  viability, T/C: 74.1%
[4]
  viability, T/C: 84.5%
[5]
  viability, T/C: 76.2%
[6]
  viability, T/C: 51.1%
[7]
  viability, T/C: 91.3%
[8]
  viability, T/C: 87.6%
[9]
  viability, T/C: 97.2%
[10]
  viability, T/C: 81.5%
[11]
  viability, T/C: 79.3%
[12]
  viability, T/C: 55.8%
[13]
  viability, T/C: 81.6%
[14]
  viability, T/C: 107%
[15]
  viability, T/C: 76.6%
[16]
  viability, T/C: 80.3%
[17]
  viability, T/C: 66.6%
[18]
  viability, T/C: 58.5%
[19]
  viability, T/C: 94.1%
[20]
  viability, T/C: 86.7%
[21]
  viability, T/C: 90.6%
[22]
  viability, T/C: 82.4%
[23]
  viability, T/C: 65.8%
[24]
  viability, T/C: 57.6%
[25]
  viability, T/C: 93.9%
[26]
  viability, T/C: 95.1%
[27]
  viability, T/C: 111%
[28]
  viability, T/C: 83.7%
[29]
  viability, T/C: 78.4%
[30]
  viability, T/C: 54.5%
[31]
  viability, T/C: 81.1%
[32]
  viability, T/C: 70%
[33]
  viability, T/C: 91%
[34]
  viability, T/C: 83.3%
[35]
  viability, T/C: 72.2%
[36]
  viability, T/C: 55.3%

## CNCc1ccc(-c2[nH]c3cc(F)cc4c3c2CCNC4=O)cc1 + Cc1cccc(N(C)C(=O)C2C(O)CCN2c2nc(C)cc(C(F)(F)F)c2C#N)c1
Second compound 0.0316 µM
  IC50: > 10 µM
Second compound 0.1 µM
  IC50: > 10 µM
Second compound 0.316 µM
  IC50: > 10 µM
Second compound 1 µM
  IC50: > 10 µM
Second compound 3.16 µM
  IC50: > 10 µM
Second compound 10 µM
  IC50: > 10 µM
[1]
  viability, T/C: 76.6%
[2]
  viability, T/C: 84.1%
[3]
  viability, T/C: 75.3%
[4]
  viability, T/C: 91%
[5]
  viability, T/C: 79.4%
[6]
  viability, T/C: 79.2%
[7]
  viability, T/C: 84.7%
[8]
  viability, T/C: 77%
[9]
  viability, T/C: 95.7%
[10]
  viability, T/C: 73.5%
[11]
  viability, T/C: 87.3%
[12]
  viability, T/C: 64.5%
[13]
  viability, T/C: 85.3%
[14]
  viability, T/C: 98%
[15]
  viability, T/C: 82.6%
[16]
  viability, T/C: 90.2%
[17]
  viability, T/C: 77.3%
[18]
  viability, T/C: 69.7%
[19]
  viability, T/C: 68.9%
[20]
  viability, T/C: 87.2%
[21]
  viability, T/C: 95.7%
[22]
  viability, T/C: 82.4%
[23]
  viability, T/C: 94.6%
[24]
  viability, T/C: 64.3%
[25]
  viability, T/C: 79.8%
[26]
  viability, T/C: 83.4%
[27]
  viability, T/C: 83.6%
[28]
  viability, T/C: 85.2%
[29]
  viability, T/C: 87.5%
[30]
  viability, T/C: 72.9%
[31]
  viability, T/C: 82.5%
[32]
  viability, T/C: 76.9%
[33]
  viability, T/C: 76.9%
[34]
  viability, T/C: 90.5%
[35]
  viability, T/C: 88.3%
[36]
  viability, T/C: 74.9%

## COc1ccc([C@@H](O)c2cc(-c3ncnc4cc(N5CCOCC5)ccc34)c(F)cc2Cl)nn1 + Cc1cccc(N(C)C(=O)C2C(O)CCN2c2nc(C)cc(C(F)(F)F)c2C#N)c1
Second compound 0.0316 µM
  IC50: > 10 µM
Second compound 0.1 µM
  IC50: > 10 µM
Second compound 0.316 µM
  IC50: > 10 µM
Second compound 1 µM
  IC50: > 10 µM
Second compound 3.16 µM
  IC50: > 10 µM
Second compound 10 µM
  IC50: > 10 µM
[1]
  viability, T/C: 95.1%
[2]
  viability, T/C: 76.6%
[3]
  viability, T/C: 93.3%
[4]
  viability, T/C: 96.9%
[5]
  viability, T/C: 81%
[6]
  viability, T/C: 63.5%
[7]
  viability, T/C: 85.2%
[8]
  viability, T/C: 92.7%
[9]
  viability, T/C: 86.4%
[10]
  viability, T/C: 99.2%
[11]
  viability, T/C: 93.2%
[12]
  viability, T/C: 63.3%
[13]
  viability, T/C: 103%
[14]
  viability, T/C: 102%
[15]
  viability, T/C: 92.2%
[16]
  viability, T/C: 102%
[17]
  viability, T/C: 76.9%
[18]
  viability, T/C: 80.9%
[19]
  viability, T/C: 79.2%
[20]
  viability, T/C: 101%
[21]
  viability, T/C: 69.6%
[22]
  viability, T/C: 86.6%
[23]
  viability, T/C: 79.8%
[24]
  viability, T/C: 68.1%
[25]
  viability, T/C: 81.2%
[26]
  viability, T/C: 89.1%
[27]
  viability, T/C: 92.7%
[28]
  viability, T/C: 81.9%
[29]
  viability, T/C: 97.4%
[30]
  viability, T/C: 65.6%
[31]
  viability, T/C: 74.1%
[32]
  viability, T/C: 83.5%
[33]
  viability, T/C: 70.2%
[34]
  viability, T/C: 66%
[35]
  viability, T/C: 77.4%
[36]
  viability, T/C: 64.1%

## COc1cccc(OCCCN)c1-c1cc(Nc2cnc(C#N)cn2)n[nH]1 + Cc1cccc(N(C)C(=O)C2C(O)CCN2c2nc(C)cc(C(F)(F)F)c2C#N)c1
Second compound 0.0316 µM
  IC50: 0.0961 µM
Second compound 0.1 µM
  IC50: 0.0824 µM
Second compound 0.316 µM
  IC50: 0.157 µM
Second compound 1 µM
  IC50: 0.125 µM
Second compound 3.16 µM
  IC50: 0.0799 µM
Second compound 10 µM
  IC50: 0.0812 µM
Second compound 0.0316 µM, first compound 0.00316 µM
  viability, T/C: 96.8%
Second compound 0.0316 µM, first compound 0.01 µM
  viability, T/C: 75.1%
[1]
  viability, T/C: 63.5%
[2]
  viability, T/C: 48.8%
[3]
  viability, T/C: 40.5%
[4]
  viability, T/C: 34.3%
Second compound 0.1 µM, first compound 0.00316 µM
  viability, T/C: 102%
Second compound 0.1 µM, first compound 0.01 µM
  viability, T/C: 71.6%
[7]
  viability, T/C: 61.1%
[8]
  viability, T/C: 48%
[9]
  viability, T/C: 42.6%
[10]
  viability, T/C: 38.2%
Second compound 0.316 µM, first compound 0.00316 µM
  viability, T/C: 90%
Second compound 0.316 µM, first compound 0.01 µM
  viability, T/C: 75.9%
[13]
  viability, T/C: 59.8%
[14]
  viability, T/C: 59%
[15]
  viability, T/C: 43.3%
[16]
  viability, T/C: 34.4%
Second compound 1 µM, first compound 0.00316 µM
  viability, T/C: 92.9%
Second compound 1 µM, first compound 0.01 µM
  viability, T/C: 72.1%
[19]
  viability, T/C: 62.4%
[20]
  viability, T/C: 54.7%
[21]
  viability, T/C: 42.3%
[22]
  viability, T/C: 32.7%
Second compound 3.16 µM, first compound 0.00316 µM
  viability, T/C: 98.3%
Second compound 3.16 µM, first compound 0.01 µM
  viability, T/C: 77.3%
[25]
  viability, T/C: 58.3%
[26]
  viability, T/C: 47.5%
[27]
  viability, T/C: 41.7%
[28]
  viability, T/C: 33.8%
Second compound 10 µM, first compound 0.00316 µM
  viability, T/C: 108%
Second compound 10 µM, first compound 0.01 µM
  viability, T/C: 67.4%
[31]
  viability, T/C: 64.3%
[32]
  viability, T/C: 48.9%
[33]
  viability, T/C: 42.5%
[34]
  viability, T/C: 40.4%
